Patent EP0762893B1, “TREATMENT OF PLASMA” (SUOMEN PUNAINEN RISTI VERIPALVELU, priority 1994, dated 1995)

Tests used:
[1] = tested on: fibrinogen; assay: Inactivation of clottable fibrinogen during MB photochemical treatment of 2 ml pooled plasma samples (thromboplastin time assay); type: biochemical; conditions: 1 µmol/l of MB, TL-M 115/33 fluorescent tubes for 1 h
[2] = tested on: F VIII; assay: Inactivation of F VIII activity during MB photochemical treatment of 2 ml pooled plasma samples (chromogenic substrate assay); type: biochemical; conditions: 1 µmol/l of MB, TL-M 115/33 fluorescent tubes for 1 h
[3] = Disappearance of ascorbate and urate from plasma during MB photochemical treatment (HPLC); conditions: compared with ascorbate
Procedure: To study the effect of added ascorbate, we used a plasma pool with a low ascorbate level (35 µmol/l). […] Ascorbate was added to the plasma at different concentrations before MB that was used at a final concentration of 1 µmol/l. Plasma samples of 2 ml were illuminated in 2.5 ml cryotubes (Falcon) with TL-M 115/33 RS fluorescent tubes (Philips) for 1 h. A transparent cooling plate with fluid circulation was placed between the plasma samples and the fluorescent tubes to keep the temperature of the plasma below 22 °C. The irradiation power at the level of the plasma tubes was 1.9 mW/cm^2 at 595-695 nm (40 000 lux). After illumination, the samples were divided into portions of 0.5 ml and frozen.
To study the fate of ascorbate during MB treatment, we followed the concentration of ascorbate at different stages of the treatment and compared it to urate, another antioxidant considered important in plasma. Plasma was illuminated with the fluorescent tubes in 2 ml portions as in Example 1, and the illumination was interrupted at different periods. Urate was measured with the same HPLC method as ascorbate.

| SMILES | extent of inactivation of fibrinogen [1] | extent of inactivation of factor VIII [2] [%] | absorbing form of MB after dilution | disappearance of urate from plasma [3] |
| --- | --- | --- | --- | --- |
| CN(C)c1ccc2nc3ccc(=[N+](C)C)cc-3sc2c1 [MB, methylene blue] | about 50% | ~40 | quantitatively restored | – |
| O=c1[nH]c(=O)c2[nH]c(=O)[nH]c2[nH]1 [Urate, urate] | – | – | – | clearly more slowly than ascorbate |
